Tests used:
[1] = solubility in PBS in the presence of 1% DMSO; assay type: physicochemical; conditions: phosphate buffered saline with 1% DMSO, aqueous buffer, kinetic from dmso stock, PBS w/o Mg, Ca
[2] = molecular target: recombinant human non-muscle myosin 2 NM2B (Homo sapiens, UniProt P35580); test: actomyosin steady state ATPase measurement, NM2B; assay type: biochemical
Source text: […]; (ii) the concentration required for semi-maximal inhibition.

M. quadriceps femoris = test: isometric force measurement of live, anesthetized rat M. quadriceps femoris due to electrical stimulation; assay type: in vivo
Method: The maximum isometric force induced by the stimulation was determined after intraperitoneal injection of some of the compounds of the invention. During the measurement, the following parameters of live anesthetized rats were continuously monitored: • a) heart rate • b) blood flow in the neck arteries • c) respiratory frequency • d) blood oxygen saturation ratio Results from live anesthetized rats are summarized in the table below.

recombinant human non-muscle myosin 2 NM2B, sequence (P35580 whole entry): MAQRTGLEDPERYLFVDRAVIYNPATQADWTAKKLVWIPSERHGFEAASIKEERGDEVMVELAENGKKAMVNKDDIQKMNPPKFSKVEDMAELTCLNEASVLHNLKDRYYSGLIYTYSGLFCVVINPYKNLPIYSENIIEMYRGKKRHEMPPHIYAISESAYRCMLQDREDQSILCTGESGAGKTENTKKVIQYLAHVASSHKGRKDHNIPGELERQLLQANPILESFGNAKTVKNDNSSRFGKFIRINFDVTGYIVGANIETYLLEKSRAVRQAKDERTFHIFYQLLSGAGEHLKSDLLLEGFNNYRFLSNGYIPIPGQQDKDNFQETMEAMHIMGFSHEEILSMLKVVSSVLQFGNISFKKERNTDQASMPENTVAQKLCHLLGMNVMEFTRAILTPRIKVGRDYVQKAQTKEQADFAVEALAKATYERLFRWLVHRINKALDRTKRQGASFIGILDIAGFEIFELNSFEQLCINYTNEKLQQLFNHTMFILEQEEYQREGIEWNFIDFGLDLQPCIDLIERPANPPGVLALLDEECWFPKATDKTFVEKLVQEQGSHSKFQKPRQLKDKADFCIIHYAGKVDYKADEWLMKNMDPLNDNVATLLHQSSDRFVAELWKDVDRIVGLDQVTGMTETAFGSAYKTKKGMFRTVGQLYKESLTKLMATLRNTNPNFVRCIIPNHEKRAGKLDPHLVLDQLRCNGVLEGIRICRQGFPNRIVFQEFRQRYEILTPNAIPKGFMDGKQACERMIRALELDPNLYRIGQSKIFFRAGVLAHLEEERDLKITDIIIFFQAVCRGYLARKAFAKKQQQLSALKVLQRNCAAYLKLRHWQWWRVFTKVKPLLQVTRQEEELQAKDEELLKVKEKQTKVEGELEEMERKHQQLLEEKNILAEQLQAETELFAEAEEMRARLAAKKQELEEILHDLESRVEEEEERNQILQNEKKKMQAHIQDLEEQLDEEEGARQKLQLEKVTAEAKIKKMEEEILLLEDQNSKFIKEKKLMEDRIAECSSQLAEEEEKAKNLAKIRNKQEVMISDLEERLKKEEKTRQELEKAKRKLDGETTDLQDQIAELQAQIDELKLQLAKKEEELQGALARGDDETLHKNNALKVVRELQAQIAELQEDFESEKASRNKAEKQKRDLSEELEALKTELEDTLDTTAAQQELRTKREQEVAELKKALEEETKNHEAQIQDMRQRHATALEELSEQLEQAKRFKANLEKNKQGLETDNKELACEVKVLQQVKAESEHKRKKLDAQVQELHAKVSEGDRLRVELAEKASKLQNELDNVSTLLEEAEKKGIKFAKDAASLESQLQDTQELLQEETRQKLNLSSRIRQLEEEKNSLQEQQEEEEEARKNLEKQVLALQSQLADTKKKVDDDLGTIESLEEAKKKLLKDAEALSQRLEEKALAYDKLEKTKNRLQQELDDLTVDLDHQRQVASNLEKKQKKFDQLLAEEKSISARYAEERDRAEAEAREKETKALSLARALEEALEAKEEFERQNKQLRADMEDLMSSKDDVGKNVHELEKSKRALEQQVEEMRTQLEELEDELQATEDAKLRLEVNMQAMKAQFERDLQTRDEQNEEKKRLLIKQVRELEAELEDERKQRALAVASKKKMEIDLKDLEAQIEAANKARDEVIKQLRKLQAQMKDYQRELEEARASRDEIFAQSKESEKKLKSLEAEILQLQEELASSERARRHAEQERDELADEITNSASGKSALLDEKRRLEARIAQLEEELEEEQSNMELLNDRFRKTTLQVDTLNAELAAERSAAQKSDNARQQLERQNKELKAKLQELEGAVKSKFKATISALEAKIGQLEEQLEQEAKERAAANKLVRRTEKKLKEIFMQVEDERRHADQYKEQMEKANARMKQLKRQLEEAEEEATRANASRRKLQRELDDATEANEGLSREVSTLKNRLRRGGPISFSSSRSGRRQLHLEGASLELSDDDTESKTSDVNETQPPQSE

Question: Which results are given for `O=C1c2ccsc2N=C2N(c3ccc(N4CCOCC4)cc3)CCC12O` (centres unmarked) [Compound 188, 9-Hydroxy-12-[4-(morpholin-4-yl)phenyl]-4-thia-2,12-diazatricyclo[7.3.0.0^3,7]dodeca-1,3(7),5-trien-8-one]?
Answer: solubility [1]: 1450 µM; IC50 ([2]; concentration required for semi-maximal inhibition of ATPase): 5 µM; % inhibition. complete NM2B ([2]; maximum value of inhibition of ATPase activity): 19%; inhibition at 5 µM ([2]; read-out: % inhibition at 5 μM (or 10 μM if racemate) NM2B, 5 μM (10 μM if racemate), ATPase activity): 8%; inhibition at 50 µM ([2]; read-out: % inhibition at 50 μM (or 100 μM if racemate) NM2B, 50 μM (100 μM if racemate), ATPase activity): 18%; Maximum change in isometric force at rear leg (%) (M. quadriceps femoris; 1 mg i.p.): 23%; Maximum change in isometric force at rear leg (%) (M. quadriceps femoris; 3 mg i.p.): 26%; Maximum change in isometric force at rear leg (%) (M. quadriceps femoris; 6 mg i.p.): 28%
